The record followed here is patent publication US20220323427A1, “SOMATOSTATIN RECEPTOR TYPE 5 AGONIST FOR THE TREATMENT OF HYPERINSULINISM” (Crinetics Pharmaceuticals, Inc., priority 2021, published 2022).

A word on the Tmax: it is the time at which the peak concentration occurs. In general, half-life refers to the time in which the quantity being followed falls by half. A high value points to slow decline. Usually EC50 stands for the concentration giving half of the maximal effect.

The nature of data set [1]: SAD study pharmacokinetics. In kind it is in vivo, human. An excerpt:
This Phase 1, first-in-human, double-blind, randomized, placebo-controlled study will evaluate the safety of Compound 1 in healthy volunteers as well as the relationship between exposure and key pharmacodynamic (PD) parameters. The study will initiate with a single ascending dose (SAD) phase followed by a multiple ascending dose (MAD) phase. Food effect will also be evaluated in subset of subjects in the SAD phase. Results will be used to inform endpoints and other parameters in later studies in patients with congenital HI.
SAD 1a/Part 1a: ascending single dose, randomized, placebo-controlled, double-blind; up to 10 cohorts, n=8/cohort; subjects in SAD 1a will undergo an IVGTT. Doses will escalate from 0.5 mg to 120 mg.
SAD 1c/Part 1c: single dose, 1-arm crossover food effect investigation; 1 cohort, n=6; SAD 1c will not be placebo-controlled or blinded. The dose is 120 mg.
In SAD 1c, subjects will participate in a 1-arm crossover investigation to evaluate the effect of a high-fat meal on Compound 1 absorption.

The target of data set [2] is T1, human somatostatin receptor subtype 5 (Homo sapiens, UniProt P35346).
T1 construct: expressed in transfected cells
T1 sequence (P35346 whole entry): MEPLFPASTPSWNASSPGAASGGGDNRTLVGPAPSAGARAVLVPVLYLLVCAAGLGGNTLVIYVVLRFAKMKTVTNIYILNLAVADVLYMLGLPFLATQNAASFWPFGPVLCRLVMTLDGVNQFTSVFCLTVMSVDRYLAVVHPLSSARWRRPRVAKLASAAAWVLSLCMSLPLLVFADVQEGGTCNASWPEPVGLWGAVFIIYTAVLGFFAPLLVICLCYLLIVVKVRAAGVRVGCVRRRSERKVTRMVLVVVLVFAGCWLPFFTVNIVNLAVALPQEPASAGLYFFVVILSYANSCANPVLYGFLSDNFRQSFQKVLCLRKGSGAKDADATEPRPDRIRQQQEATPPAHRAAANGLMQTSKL
Nature of the data set: cAMP assay for SST5R. The format is cell-based. An excerpt:
General overview: All five SSTR subtypes are Gi coupled G-protein coupled receptors (GPCRs) that lead to decreases in intracellular cyclic AMP (cAMP) when activated by an agonist. Therefore, measurement of intracellular cAMP levels can be used to assess whether compounds of the invention are agonists of SSTR subtypes (John Kelly, Troy Stevens, W. Joseph Thompson, and Roland Seifert, Current Protocols in Pharmacology, 2005, 2.2.1-2.2). One example of an intracellular cAMP assay is described below.
Four days prior to the assay, 2,000 Chinese hamster ovary cells (CHO-K1, ATCC #CCL-61) stably expressing the human somatostatin receptor subtype 5 are plated in each well of a 96-well tissue culture-treated plate in Ham's F12 growth media (ThermoFisher #10-080-CM) supplemented with 10% donor bovine serum (Gemini Bio-Products #100-506), 100 U/mL penicillin; 100 μg/mL streptomycin; 2 mM L-glutamine (Gemini Bio-Products #400-110) and 0.25 mg/mL G418 Sulfate (GoldBio #108321-42-2). The cells are cultured at 37° C., 5% CO2 and 95% humidity. […] The time-resolved fluorescent signal is read with a Tecan M1000Pro multiplate reader. The intracellular cAMP concentrations are calculated by regression to a standard curve and are plotted vs. the concentration of the compounds of the invention and the EC50 of the compounds are calculated using standard methods. […]
On the technique in general: Cyclic AMP is a second messenger, typically raised through Gs and lowered through Gi signalling.

For data set [3], the system named is sulfonylurea-induced hyperinsulinism. Nature of the data set: Sulfonylurea (glibenclamide) challenge and euglycemic clamp, MAD. In kind it is in vivo, human. Here is the method: (§1) MAD/Part 2: multiple ascending dose, randomized, placebo-controlled, double-blind; up to 5 cohorts, n=9/cohort; subjects in MAD will receive Compound 1 or the placebo. Subjects will undergo a mixed meal tolerance test (MMTT) and an SU challenge and euglycemic clamp procedure. The doses will not exceed the doses in the SAD. Doses will escalate from 30 mg to 120 mg.
In SAD 1b and the MAD, subjects will undergo an SU challenge in the setting of a euglycemic clamp procedure. Sulfonylurea drugs act to close KATP channel of the pancreatic β-cell, stimulating endogenous insulin secretion. Given that the majority (50%) of patients with congenital HI harbor a mutation in the KATP channel, the SU challenge models this genetic form of HI in healthy volunteers. Intravenous glucose will be used during the euglycemic clamp to maintain glucose within a target range. In the presence of an SU, the amount of intravenous (IV) glucose required to maintain a target glucose will increase, similar to patients with congenital HI who require supplemental glucose. The SU challenge cohorts in SAD 1b will assess the ability of a single dose of Compound 1 to reduce or prevent SU-induced glucose lowering as measured by reduced IV glucose infusion (reduced glucose “support”). IV glucose requirements will be assessed as a glucose infusion rate, or GIR (mg dextrose/kg body weight/minute). In the MAD, the durability of the Compound 1 effect will be measured by assessing the GIR required to maintain euglycemia during the SU challenge after 10 days of Compound 1 dosing compared to the baseline SU challenge in the absence (predose) of Compound 1.
Glibenclamide will be used for SU-induced hypoglycemia. Based on the available dose-response data in healthy volunteers, 5 mg of glibenclamide will be orally administered to healthy volunteers in selected single- and multi-dose cohorts. The risk of hypoglycemia due to overdose is negligible because continuous glucose monitoring by a clamp device will be performed for each subject and IV infusion of glucose will be provided to maintain each subject's baseline glucose levels.
The euglycemic glucose clamp will be performed by means of a glucose clamp device (ClampArt®; Profil Institut für Stoffwechselforschung, Neuss, Germany). The subject will be connected to the clamp device that will monitor the subject's PG continuously. The device will calculate aggregated PG values every minute. Based on these values, GIR will be calculated every minute using the algorithm implemented into the device and glucose will be administered automatically by the device to keep the PG concentration of the subject constant at a pre-determined target level. Approximately 2 mL of blood per hour will be sampled for glucose monitoring by ClampArt®/the clamp device. […]

A short description of data set [4]: MAD study safety and tolerability. In kind it is in vivo, human. The following applies: QD 30, 60 and 120 mg/day for 10 days. Here is the method: as §1
To evaluate the safety and tolerability of single and multiple doses of Compound 1.

Where [5] appears, read: after 10 days of 30, 60 or 120 mg QD.

Regarding `C[C@H](NC(=O)c1cnc(C#N)c(-c2cc(F)cc(F)c2)c1N1CC[C@H](N)C1)C(F)(F)F` [Compound 1, 4-[(3S)-3-aminopyrrolidin-1-yl]-6-cyano-5-(3,5-difluorophenyl)-N-[(2S)-1,1,1-trifluoropropan-2-yl]pyridine-3-carboxamide], the “Food effect on exposure” value in data set [1] (120 mg within 30 minutes of a high fat breakfast) is given as “significant reduction in exposure”. Also, the time to peak (Tmax) in data set [1] (human, in vivo, single oral dose, at efficacious doses) was 1 to 2 h. This compound also gave a half-life in data set [1] (human, in vivo, single oral dose, healthy volunteers) of about 40 h. Also, the “Oral bioavailability and dose proportionality” value in data set [1] (single oral doses 0.5 to 120 mg) was “oral bioavailability with dose-proportional exposure”. The “Fold selectivity for SST5 vs SST2” value in data set [2] (human SST5 vs human SST2, cAMP) is over 500 fold. For the same compound, in data set [2] (inhibition of cAMP, CHO-K1 cells expressing human SST5, read-out: SST5 potency (EC50; nM)), the EC50 was under 1 nM. Moreover, in data set [3] (120 mg cohort, Day 10), the “Plasma glucose during sulfonylurea challenge” value is reported as “mild elevation of plasma glucose”. In data set [3] (setting [5]), the “Effect on sulfonylurea-induced hyperinsulinism” value is listed as “reversed sulfonylurea-induced hyperinsulinism” and the “Need for IV glucose support (glucose infusion rate)” value is “eliminating the need for IV glucose support”. For the same compound, the “Insulin and C-peptide levels during sulfonylurea challenge” value in data set [3] (day 10, all cohorts) was “suppressed”. Further, the Safety and tolerability result in data set [4] was “generally safe and well tolerated”.
